This is an account of results in US12115208B2, “Small-molecule adjuvants for antibiotics to address antibiotic resistance” (HIGH POINT UNIVERSITY, priority 2017, dated 2024).

Where two headings read alike, the source gives them in different places.

One test relates to mecA mRNA. It is filed as cell-based, Staphylococcus aureus (MRSA). As to conditions: co-treatment amoxapine and oxacillin vs oxacillin alone. The procedure:
(§1) Triplicate cultures of each condition were briefly centrifuged and cell pellets were stored at −80° C. Pellets were resuspended in 100 uL of lyphostaphin (1 mg/mL) and incubated at room temperature for 10 minutes. Next, lysates were subjected to a Qiashredder column and RNA was purified with RNeasy columns according to the manufacturer's protocol (Qiagen). An on-column DNase step was also included. Total RNA was quantified and purity was assessed with a Nanodrop spectrophotometer (Thermo Scientific). RNA integrity was visualized by agarose gel electrophoresis using GelRed (Phenix) and a ChemiDoc MP (BioRad).
(§2) 200 ng of total RNA was reverse transcribed using random primers, according to the manufacturer's protocol (BioRad select cDNA synthesis kit). Minus reverse transcriptase controls were prepared for each sample. […] Specificity of each primer pair was assessed with melt curve analyses and agarose gel electrophoresis. The efficiency of each primer pair was calculated using results from calibration curves generated in Microsoft Excel. Contaminating genomic DNA levels were calculated using the comparative Ct method. Gene expression levels relative to 16S rRNA were calculated using a relative quantification model.^17 Statistical significance was determined by unpaired student's t tests. […]

For a further test, the system named is mecI mRNA. It is filed as cell-based, Staphylococcus aureus (MRSA). As to conditions: co-treatment amoxapine and oxacillin vs oxacillin alone. The protocol: as §1, §2
A further test has as its system MRSA. Nature of the test: Growth curves. It is filed as cell-based, Staphylococcus aureus. As to conditions: MRSA in CAMHB. The protocol: The overnight culture was diluted into fresh CAMHB to a concentration of 5×10^5 CFU/ml. The cell suspension (3 mL) was aliquoted into sterile culture tubes and compound was added to achieve the desired concentrations. An untreated aliquot served as the control. 200 μl of each suspension or of the untreated control was aliquoted into a flat-bottomed microtiter plate. The plate was maintained at 37° C. with shaking and absorbance readings (600 nm) were recorded every 30 minutes for 24 hours.
MRSA was grown in cation-adjusted Mueller-Hinton broth (CAMHB). […] The optical density of the cultures at 600 nm was measured every 2 hours for 8 hours and again at 24 hours.

The target in test [1] is β-lactamase, MSSA ATCC 29213 (Staphylococcus aureus, UniProt P00807). As to conditions: MSSA 29213.
Experimental: For whole cell nitrocefin assays, bacteria was cultured overnight in CAMHB at 37° C. with shaking. The overnight culture was subcultured 1:100 in fresh CAMHB and grown at 37° C. with shaking to mid-log phase (OD600=0.4-0.6). The culture was adjusted to an OD600 of 0.2 in fresh CAMHB. […] These suspensions were incubated at 37° C. with shaking for thirty minutes. The suspensions were adjusted to an OD600 of 0.132 in phosphate buffered saline (PBS, pH 7, 900 μl). A 100 μl of a stock solution of nitrocefin (500 mg/ml in PBS) was added to these suspensions and mixed. The nitrocefin-bacteria suspensions (100 μl) were added to the wells of a clear 96-well polystyrene microtiter plate. A 50 mg/ml solution of nitrocefin in PBS served as a blank. Using BioTek Synergy H1 microplate reader maintained at 37° C., the absorbance at 486 nm was recorded every 5 minutes for 2 hours.
The known β-lactamase inhibitor sulbactam was used as a positive control. Again, all assays were run in triplicate and each data point represents the average of three data points.
For a further test, the system named is pbp2 mRNA. Nature of the test: RT-qPCR mRNA levels. It is filed as cell-based, Staphylococcus aureus (MRSA). As to conditions: co-treatment amoxapine and oxacillin vs oxacillin alone. The protocol: as §1, §2
Background: Quantitative PCR measures a nucleic acid by following its amplification.

For test [2], the system named is S. aureus ATCC 29213. Nature of the test: Antibiotic repotentiation (antibiotic MIC with/without compound). It is filed as cell-based, Staphylococcus aureus. As to conditions: ATCC 29213.
Test [3] relates to S. aureus USA300 (MRSA). The test is described as above. It is filed as cell-based, Staphylococcus aureus. As to conditions: USA300 (MRSA).
In another test the test system is S. epidermidis 49461. Nature of the test: Antibiotic repotentiation (oxacillin MIC with/without compound). It is filed as cell-based, Staphylococcus epidermidis. As to conditions: +75 μM compound; S. epidermidis 49461. The protocol: The overnight culture was diluted into fresh CAMHB to a concentration of 5×10^5 CFU/ml. […] On the same plate, a standard microdilution MIC with the tested antibiotics and no added compound was also performed to compare the antibiotic MIC in the presence and absence of compound. […] Fold reductions were calculated by dividing the MIC of the antibiotic without compound by the MIC of the antibiotic in the presence of compound.
Antibiotic potentiation in S. epidermidis was also investigated.

The test system of test [4] is S. aureus ATCC 43300 (MRSA). Kind of test: Minimum inhibitory concentration, broth microdilution. It is filed as cell-based, Staphylococcus aureus. As to conditions: Staphylococcus aureus; compound alone; S. aureus ATCC 43300 (MRSA); CAMHB, 18 h; read-out: MIC. The protocol: (§3) The compounds were then analyzed for antibiotic repotentiation activity. […] The tested strains included USA300, which is a common and particularly virulent strain of community-acquired MRSA.

The subject of test [5] is S. aureus USA300 (MRSA). The test is described as above. Type of test: cell-based, Staphylococcus aureus. As to conditions: Staphylococcus aureus; compound alone; S. aureus USA300 (MRSA); CAMHB, 18 h; read-out: MIC. The procedure:
as §3

Test [6] relates to S. aureus ATCC 29213. Described as above. Type of test: cell-based. As to conditions: Staphylococcus aureus, ATCC29213; compound alone; S. aureus ATCC 29213; CAMHB, 18 h; read-out: MIC. The protocol:
as §3

A further test concerns blaI mRNA. Kind of test: RT-qPCR mRNA levels. Type of test: cell-based, Staphylococcus aureus (MRSA). As to conditions: co-treatment amoxapine and oxacillin vs oxacillin alone. The protocol: as §1
(§4) 200 ng of total RNA was reverse transcribed using random primers, according to the manufacturer's protocol (BioRad select cDNA synthesis kit). Minus reverse transcriptase controls were prepared for each sample. Next, duplicate qPCR reactions were performed for each cDNA template using SYBR green according to the manufacturer's protocol (BioRad SYBR Green Supermix). Primer sequences are found in Supporting Information. Those that the authors designed used NCBI Primer Blast to specify the annealing temperatures, length, location, and analyze specificity and secondary structure. All reactions were run on a StepOne thermal cycler (Applied Biosystems). Cycling parameters were as follows: 95° C. for 10 minutes, 40 cycles of 95° C. for 15 seconds followed by 60° C. for 1 minute. Specificity of each primer pair was assessed with melt curve analyses and agarose gel electrophoresis. The efficiency of each primer pair was calculated using results from calibration curves generated in Microsoft Excel. Contaminating genomic DNA levels were calculated using the comparative Ct method. Gene expression levels relative to 16S rRNA were calculated using a relative quantification model.^17 Statistical significance was determined by unpaired student's t tests. All calculations were performed using Microsoft Excel.
(§5) See Blazquez, B. et al., “Regulation of the expression of the beta-lactam antibiotic-resistance determinants in methicillin-resistant Staphylococcus aureus (MRSA),” Biochemistry 2014, 53 (10), 1548; Staude, M. W. et al., “Investigation of signal transduction routes within the sensor/transducer protein BlaR1 of Staphylococcus aureus,” Biochemistry 2015, 54 (8), 1600; Thumanu, K., et al., “Discrete steps in sensing of beta-lactam antibiotics by the BlaR1 protein of the methicillin-resistant Staphylococcus aureus bacterium,” Proc Natl Acad Sci USA 2006, 103 (28), 10630, which are incorporated herein by reference in their entireties.

The subject of the next test is blaZ mRNA. Kind of test: RT-qPCR mRNA levels. Type of test: cell-based, Staphylococcus aureus (MRSA). The protocol:
as §1, §4, §5

β-lactamase, MSSA ATCC 29213, sequence (P00807 25-281): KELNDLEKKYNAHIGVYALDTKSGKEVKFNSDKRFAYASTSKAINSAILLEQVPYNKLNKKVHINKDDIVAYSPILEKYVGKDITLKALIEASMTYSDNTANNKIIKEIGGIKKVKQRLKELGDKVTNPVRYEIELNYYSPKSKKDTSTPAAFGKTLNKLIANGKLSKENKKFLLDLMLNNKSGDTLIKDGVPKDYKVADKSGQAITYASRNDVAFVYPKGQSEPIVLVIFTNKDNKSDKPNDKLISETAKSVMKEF

Usually MIC stands for the lowest concentration that inhibits growth of the organism. For the molecule `Clc1ccc2c(c1)C(N1CCNCC1)=Nc1ccccc1O2` [Amoxapine, 2-chloro-11-(1-piperazinyl)dibenz[b,f][1,4]oxazepine], the “reduction in mecA mRNA levels” value with mecA mRNA was determined as 4.5 fold. Moreover, the “reduction in mecI mRNA levels” value in the test on mecI mRNA amounted to 3.0 fold. Further, the “effect on cell density (OD 600 nm) throughout the experiment” value with MRSA (combination of oxacillin (1 μg/mL) and amoxapine (150 μM), 24 h) is recorded as “potent inhibition of cell density”. For the same molecule, the “effect on cell density (OD 600 nm) after 24 hours” value with MRSA (single treatment: oxacillin 1 μg/mL alone or amoxapine 150 μM alone) is given as “negligible effect”. For the same molecule, the “effect on β-lactamase activity (nitrocefin hydrolysis)” value is recorded as “little effect” in test [1] (oxacillin in combination with amoxapine) and “no effect” in test [1] (treatment alone, compared to untreated cells). Moreover, in the test on pbp2 mRNA, the “effect on mRNA levels of pbp2” value is “no significant effect”. The “Oxacillin MIC” value in the test with S. aureus ATCC 29213 [2] (+75 μM compound) was 0.25 µg/mL; in the test with S. aureus ATCC 29213 [2] (+150 μM compound), 0.125 µg/mL; in the test with S. aureus USA300 (MRSA) [3] (+75 μM compound), 16 µg/mL; in the test with S. aureus USA300 (MRSA) [3] (+150 μM compound), 2 µg/mL; with S. epidermidis 49461, 4 µg/mL. The minimum inhibitory concentration (MIC) (in test [4]; in the test with S. aureus USA300 (MRSA) [5]; in the test with S. aureus ATCC 29213 [6]) was 600 µM in each case. Moreover, the “reduction in blaI levels” value in the test with blaI mRNA turned out to be 2.2 fold. Also, in the test with blaZ mRNA (amoxapine alone vs untreated control (data not shown)), the “effect on mRNA levels” value was “no significant effect”. The “reduction in blaZ levels” value in the test on blaZ mRNA (co-treatment amoxapine and oxacillin vs oxacillin alone) is recorded as 3.0 fold.
